Test results as given in patent US10849893B2 (Athenex HK Innovative Limited, priority 2018, dated 2020).
Where “and” joins values, the source holds several entries; their conditions need not be identical. Equal values may be shown once. Read-outs that look alike come from different tables or passages of the source.

What was measured:
clinical = conditions: human, po
[1] = for Reported half-life: individual values, sampling to 168 h, LLOQ 0.2 ng/mL
[2] = oral 35 mg/m^2 with Compound A, Mean, N=4
[3] = oral 35 mg/m^2 with Compound A, individual subjects
[4] = oral 75 mg/m^2 with Compound A, Mean, N=3
[5] = oral 75 mg/m^2 with Compound A, individual subjects
[6] = oral 75 mg/m^2 with Compound A, individual subjects, listed as Docetaxel
[7] = oral 150 mg/m^2 with Compound A, individual subjects
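Note: noncompartmental pharmacokinetic analysis in subjects with solid tumors, using linear-up log-down interpolation, with terminal slope time points picked automatically by the software.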

CC(=O)O[C@@]12CO[C@@H]1C[C@H](O)[C@@]1(C)C(=O)[C@H](O)C3=C(C)[C@@H](OC(=O)[C@H](O)[C@@H](NC(=O)OC(C)(C)C)c4ccccc4)C[C@@](O)([C@@H](OC(=O)c4ccccc4)[C@H]21)C3(C)C [docetaxel, (2aR,4S,4aS,6R,9S,11S,12S,12aR,12b S)-12b-acetoxy-9-(((2R,3S)-3-((tert-butoxycarbonyl)amino)-2-hydroxy-3-phenylpropanoyl)oxy)-4,6,11-trihydroxy-4a,8,13,13-tetramethyl-5-oxo-2a,3,4,4a,5,6,9,10,11,12,12a, 12b-dodecahydro-1H-7,11-methanocyclodeca[3,4]benzo[1,2-b]oxet-12-yl benzoate]
AUC(0-inf) (clinical; in vivo, 35 mg/m2): 308 ng·h/mL
half-life (clinical; in vivo, 150 mg/m2): 2.22 days
Cmax (clinical; in vivo, 150 mg/m2, Cmax, oral 150 mg/m^2 with Compound A, individual subjects): 125 ng/mL
half-life (clinical; in vivo, 225 mg/m2): 2.27 days
Cmax (clinical; in vivo, 225 mg/m2, Cmax, oral 225 mg/m^2 with Compound A, individual subjects): 118 ng/mL
AUC(0-t) (clinical; plasma, 35 mg/m2, AUC0-12, oral 35 mg/m^2 with Compound A, Mean, N=4): 184 ng·h/mL
AUC(0-t) (clinical; plasma, 35 mg/m2, AUC0-24, oral 35 mg/m^2 with Compound A, Mean, N=4): 211 ng·h/mL
AUC(0-t) (clinical; plasma, 35 mg/m2, AUC0-48, oral 35 mg/m^2 with Compound A, Mean, N=4): 240 ng·h/mL
AUC(0-inf) (clinical; plasma, 35 mg/m2, AUCINF—obs, oral 35 mg/m^2 with Compound A, Mean, N=4): 296 ng·h/mL
Cmax (clinical; plasma, 35 mg/m2, Cmax, oral 35 mg/m^2 with Compound A, Mean, N=4): 69.1 ng/mL
Cmax (clinical; plasma, 35 mg/m2, Cmax, oral 35 mg/m^2 with Compound A, individual subjects): 38 to 157 ng/mL
half-life (clinical; plasma, 35 mg/m2, t1/2, oral 35 mg/m^2 with Compound A, Mean, N=4): 1.15 days
half-life (clinical; plasma, 35 mg/m2, t1/2, oral 35 mg/m^2 with Compound A, mean): 1.22 days
concentration at 24 hr (clinical; plasma, 35 mg/m^2, Analyte Concentration, oral 35 mg/m^2, cohort 1, time 24.0 hr, individual subjects): 1.25 ng/mL
AUC(0-t) (clinical; plasma, 75 mg/m2, AUC0-48, oral 75 mg/m^2 with Compound A, Mean, N=3): 675 ng·h/mL
AUC(0-inf) (clinical; plasma, 75 mg/m2, AUCINF—obs, oral 75 mg/m^2 with Compound A, Mean, N=3): 815 ng·h/mL
Cmax (clinical; plasma, 75 mg/m2, Cmax, oral 75 mg/m^2 with Compound A, Mean, N=3): 172 ng/mL
half-life (clinical; plasma, 75 mg/m2, Reported half-life, oral 75 mg/m^2, individual values, sampling to 168 h, LLOQ 0.2 ng/mL): 2.14 days
half-life (clinical; plasma, 75 mg/m2, t1/2, oral 75 mg/m^2 with Compound A, Mean, N=3): 2.21 days
half-life (clinical; plasma, 75 mg/m2, t1/2, oral 75 mg/m^2 with Compound A, individual subjects): 2.14 days
half-life (clinical; plasma, 75 mg/m2, t1/2, oral 75 mg/m^2 with Compound A, mean): 2.21 days
concentration at 0.25 hr (clinical; plasma, 75 mg/m^2, Analyte Concentration, oral 75 mg/m^2, cohort 2, time 0.250 hr, individual subjects): 28 ng/mL
Tmax (clinical; plasma, 150 mg/m2): 2.67 h
AUC(0-t) (clinical; plasma, 150 mg/m2, AUC0-12, oral 150 mg/m^2 with Compound A, individual subjects): 446 ng·h/mL
Cmax (clinical; plasma, 150 mg/m2, Cmax, oral 150 mg/m^2 with Compound A, individual subjects): 112 to 136 ng/mL
half-life (clinical; plasma, 150 mg/m2, Reported half-life, oral 150 mg/m^2, individual values, sampling to 168 h, LLOQ 0.2 ng/mL): 3 days
half-life (clinical; plasma, 150 mg/m2, t1/2, oral 150 mg/m^2 with Compound A, individual subjects): 3 days
Tmax (clinical; plasma, 225 mg/m2): 0.5 h
AUC(0-t) (clinical; plasma, 225 mg/m2, AUC0-24, oral 225 mg/m^2 with Compound A, Mean, N=3): 792 ng·h/mL
AUC(0-t) (clinical; plasma, 225 mg/m2, AUC0-24, oral 225 mg/m^2 with Compound A, individual subjects): 986 ng·h/mL
AUC(0-t) (clinical; plasma, 225 mg/m2, AUC0-48, oral 225 mg/m^2 with Compound A, Mean, N=3): 914 ng·h/mL
AUC(0-inf) (clinical; plasma, 225 mg/m2, AUCINF—obs, oral 225 mg/m^2 with Compound A, Mean, N=3): 1190 ng·h/mL
half-life (clinical; plasma, 225 mg/m2, t1/2, oral 225 mg/m^2 with Compound A, Mean, N=3): 2.33 days
half-life (clinical; plasma, 225 mg/m2, t1/2, oral 225 mg/m^2 with Compound A, individual subjects): 2.8 days
concentration at 1 hr (clinical; plasma, 225 mg/m^2, Analyte Concentration, oral 225 mg/m^2, cohort 4, time 1.00 hr, individual subjects): 55.6 ng/mL
concentration at 2 hr (clinical; plasma, 225 mg/m^2, Analyte Concentration, oral 225 mg/m^2, cohort 4, time 2.00 hr, individual subjects): 118 ng/mL
concentration at 4 hr (clinical; plasma, 225 mg/m^2, Analyte Concentration, oral 225 mg/m^2, cohort 4, time 4.00 hr, individual subjects): 28 ng/mL
docetaxel plasma concentration vs in vitro target IC50 of 5 nM (4 ng/mL) ([1]; individuals administered 35 or 75 mg/m^2 oral docetaxel): > 4 ng/mL
Reported half-life ([1]; oral 35 mg/m^2): 35 mg/m^2: 3.4 h, and 19.1 h and 65.3 h
Average Time above Target (0 to last time point measured above 4 ng/ml) ([1]; oral 35 mg/m^2 SD): 7.5 h
Dose Normalized AUC ([1]; oral 35 mg/m^2 with Compound A): 39.97
AUC % Extrapobs [1, 2]: 7.51%
Tmax [1, 2]: 1.50 h
AUC0-12 [1, 3]: 145 ng·h/mL and 39.8 ng·h/mL and 198 ng·h/mL and 353 ng·h/mL
AUC0-24 [1, 3]: 178 ng·h/mL and 46.1 ng·h/mL and 227 ng·h/mL and 392 ng·h/mL
AUC0-48 [1, 3]: 218 ng·h/mL and 46.1 ng·h/mL and 257 ng·h/mL and 440 ng·h/mL
AUC % Extrapobs [1, 3]: 7.76% and 11.4% and 3.39% and 7.45%
AUCINF—obs [1, 3]: 259 ng·h/mL and 44.9 ng·h/mL and 279 ng·h/mL and 599 ng·h/mL
Cmax [1, 3]: 38.0 ng/mL and 73.0 ng/mL and 157 ng/mL and 8.59 ng/mL
Tmax [1, 3]: 2.00 h and 1.00 h
t1/2 [1, 3]: 22.8 h and 3.40 h and 19.1 h and 65.3 h
AUC0-24 ([1]; oral 35 mg/m^2 with Compound A, individual subjects by cancer diagnosis): 170 to 392 ng·h/mL
AUC0-24 ([1]; oral 35 mg/m^2 with Compound A, individual subjects by cancer diagnosis, listed as Docetaxel): 170 ng·h/mL and 227 ng·h/mL and 392 ng·h/mL
Reported half-life ([1]; oral 75 mg/m^2): 62.4 h and 45.8 h
Average Time above Target (0 to last time point measured above 4 ng/ml) ([1]; oral 75 mg/m^2 SD): 21.5 h
Dose Normalized AUC ([1]; oral 75 mg/m^2 with Compound A): 38.23
AUC0-12 [1, 4]: 512 ng·h/mL
AUC0-24 [1, 4]: 598 ng·h/mL
AUC % Extrapobs [1, 4]: 3.89%
Tmax [1, 4]: 2.00 h
Cmax [1, 5]: 81.6 to 190 ng/mL
Tmax [1, 5]: 2.00 h
AUC0-24 ([1]; oral 75 mg/m^2 with Compound A, individual subjects by cancer diagnosis): 304 to 1030 ng·h/mL
AUC0-24 ([1]; oral 75 mg/m^2 with Compound A, individual subjects by cancer diagnosis, listed as Docetaxel): 461 ng·h/mL and 304 ng·h/mL and 1030 ng·h/mL
AUC0-12 [1, 6]: 390 ng·h/mL and 270 ng·h/mL and 875 ng·h/mL
AUC0-24 [1, 6]: 461 ng·h/mL and 304 ng·h/mL and 1030 ng·h/mL
AUC0-48 [1, 6]: 543 ng·h/mL and 334 ng·h/mL and 1150 ng·h/mL
AUC % Extrapobs [1, 6]: 4.31% and 4.87% and 2.50%
AUCINF—obs [1, 6]: 690 ng·h/mL and 409 ng·h/mL and 1350 ng·h/mL
Cmax [1, 6]: 165 ng/mL and 81.6 ng/mL and 190 ng/mL and 270 ng/mL
t1/2 [1, 6]: 62.1 h and 45.8 h
Reported half-life ([1]; oral 150 mg/m^2): 53.3 h and 63.3 h
Average Time above Target (0 to last time point measured above 4 ng/ml) ([1]; oral 150 mg/m^2 SD): 15.5 h
Dose Normalized AUC ([1]; oral 150 mg/m^2 with Compound A): 26.70
AUC0-12 [1, 7]: 898 ng·h/mL and 650 ng·h/mL
AUC0-24 [1, 7]: 1050 ng·h/mL and 720 ng·h/mL and 490 ng·h/mL
AUC0-48 [1, 7]: 1150 ng·h/mL and 775 ng·h/mL and 538 ng·h/mL
AUC % Extrapobs [1, 7]: 5.59% and 2.53% and 5.32%
AUCINF—obs [1, 7]: 1380 ng·h/mL and 876 ng·h/mL and 673 ng·h/mL
Cmax [1, 7]: 136 ng/mL and 112 ng/mL
Tmax [1, 7]: 2.00 h and 4.00 h
t1/2 [1, 7]: 63.3 h
AUC0-24 ([1]; oral 150 mg/m^2 with Compound A, individual subjects by cancer diagnosis): 490 to 1050 ng·h/mL
